Activity calls are given as the source filed them. The calls are words filed in the database; no cut-off is given here.
Assays:
Saccharomyces cerevisiae [1] = test: Inhibition of Pdrp5-mediated rhodamine 6G accumulation in Saccharomyces cerevisiae AD124567 at 20 uM after 2 hrs by fluorescence microscopic analysis
[2] = Inhibition of Pdr5p-dependent UTPase activity in Saccharomyces cerevisiae AD124567 assessed as release of inorganic phosphate after 60 mins […]
[3] = Inhibition of Pdr5p-dependent ATPase activity in Saccharomyces cerevisiae AD124567 assessed as release of inorganic phosphate after 60 mins […]
Saccharomyces cerevisiae [4] = test: Inhibition of Prdp5 in Saccharomyces cerevisiae AD124567 assessed as inhibition of glucose-dependent rhodamine 6G efflux after 13 mins at 200 uM by spectrofluorimetry in presence of 2-deoxyglucose treated for 30 mins before compound addition
Saccharomyces cerevisiae [5] = test: Antimicrobial activity against Pdrp5 overexpressing Saccharomyces cerevisiae AD124567 assessed as growth yield reduction at 200 uM after 48 hrs by chemosensitization assay; type: functional; conditions: AD124567, 48 h, read-out: GI
Saccharomyces cerevisiae [6] = test: Inhibition of Prdp5 in Saccharomyces cerevisiae AD124567 assessed as inhibition of glucose-dependent rhodamine 6G efflux after 2 hrs at 100 uM by fluorescence microscopy
Saccharomyces cerevisiae [7] = test: Antimicrobial activity against Saccharomyces cerevisiae AD124567 assessed as growth yield reduction at 200 uM after 48 hrs by chemosensitization assay; conditions: AD124567, 48 h, read-out: GI
Saccharomyces cerevisiae [8] = test: Inhibition of Prdp5 in Saccharomyces cerevisiae AD124567 assessed as inhibition of glucose-dependent rhodamine 6G efflux after 13 mins by spectrofluorimetry in presence of 2-deoxyglucose treated for 30 mins before compound addition

For C=CC[C@@H]1/C=C(\C)C[C@H](C)C[C@H](OC)[C@H]2O[C@@](O)(C(=O)C(=O)N3CCCC[C@H]3C(=O)O[C@H](/C(C)=C/[C@@H]3CC[C@@H](O)[C@H](OC)C3)[C@H](C)[C@@H](O)CC1=O)[C@H](C)C[C@@H]2OC, which inhibition (Saccharomyces cerevisiae [1]) is on record?
The inhibition was “Active”.

With Nc1ncc(/C=C/CNC(=O)c2cc(Br)c(Br)[nH]2)[nH]1 [OROIDIN] as the compound, how does the IC50 [2] read?
The IC50 was 13 µM.

And the IC50 [3]?
The IC50 was 20 µM.

And the inhibition (Saccharomyces cerevisiae [4])?
Its inhibition is 60%.

And the inhibition of growth at 200 µM (Saccharomyces cerevisiae [5])?
Its inhibition of growth at 200 µM is 30%.

What about the inhibition (Saccharomyces cerevisiae [6]) of the same compound?
Its inhibition is “Active”.

And the inhibition of growth at 200 µM (Saccharomyces cerevisiae [7])?
The inhibition of growth at 200 µM was 30%.

And the inhibition (Saccharomyces cerevisiae [8])?
The inhibition was “Dose-dependent effect”.

From ChEMBL document CHEMBL1687856, “Oroidin inhibits the activity of the multidrug resistance target Pdr5p from yeast plasma membranes” (J Nat Prod, 2011)
